A word on the melting point: it is the temperature, or range, at which the solid turns liquid.

Each structure is given as a SMILES string. Where only a bound is given, the exact number is not on record here.

`CCCCSc1cc(C(=O)O)cc([N+](=O)[O-])c1-c1ccccc1` yielded a melting point of 147 to 148 °C.

In turn, `Nc1cn2cc(Sc3ccccc3)ccc2n1` returned a melting point of 110 to 112 °C.

On to `CC(C)(N)CNc1ncc2ncnc(Nc3ccc(F)c(Cl)c3)c2n1`, for which the melting point fell in the range of 205 to 207 °C.

Turning to `C=CC(=O)NC1CC(C)(C)N(C=CC(=O)OCC)C(C)(C)C1`, the melting point lay in the range of 123 to 125 °C.

`CCC(Nc1ccccc1C(=O)O)c1nccnc1OCc1ccccc1` (stereo not given) displayed a melting point of 142 °C.

`CC(=O)c1ccc2ccc(C(=O)O)cc2c1` had a melting point of 224 to 228 °C.

For `CCc1cc(CC)c2oc(C(=O)O)cc(=O)c2c1O`, the melting point lay within 218 to 220 °C.

Turning to `Cc1cccc(-n2c(-c3cc(-c4ccc(Cl)cc4)c(N4CCOCC4)s3)nc3ccccc3c2=O)c1`, the melting point lay in the range of 228 to 230 °C.

As to `CCCc1c(OCCCOc2ccc(C(=O)CCC(=O)O)cc2F)ccc(C(C)=O)c1O`, the melting point lay within 142 to 144 °C.

With `CCCN(CCC)C1Cc2c[nH]c3ccc(C(=O)C(C)(C)C)c(c23)C1` (stereo not given), the melting point worked out at 92 °C.

For the molecule `O=C(NN=Cc1c(O)cccc1Cl)c1ccc(Cl)cc1`, the melting point lay in the range of 273 to 277 °C.

With `CC12CCC(I)CC1=CCC1C2CCC2(C)C1CCC21OCCO1` (stereo not given), the melting point is 140 to 141 °C.

Regarding `Cc1cccc(C(=O)C2CC2)c1N`, the melting point came to 64 °C.

Molecule `COc1ccc(-c2cnc3cc4cnn(CCO)c4cc3n2)cc1F` yielded a melting point of 192 to 195 °C.

Turning to `COc1cnn(C2CCCCO2)c(=O)c1Cl` (stereo not given), the melting point fell in the range of 118 to 120 °C.

The molecule `CC(=O)Nc1ccc(OCCOCCOc2ncc(Cl)cn2)cc1` displayed a melting point of 110 °C.

Turning to `CC/C(=C\C=C\C(O)(C(F)(F)F)C(F)(F)F)c1ccc(COc2ccc(CO)c(CO)c2)s1`, the melting point fell in the range of 113 to 114 °C.

`COc1ccc(/C(=C/C(=O)O)c2cc(F)cc(F)c2)cc1` showed a melting point of 170 to 172 °C.

As for `Cc1oc(-c2ccco2)nc1COc1ccc(COc2nn(-c3ccccc3)cc2C=O)cc1`, the melting point was in the range of 148 to 149 °C.

`CC(=O)Nc1cccc2c1S(=O)(=O)C(C)C2` (stereo not given) returned a melting point of 115 to 117 °C.

Molecule `COC(=O)C1CN(C(=O)c2cc(OC)c(OC)c(OC)c2)CCN1C(=O)C1=Cc2cc(OC)c(OC)cc2CCC1` (stereo not given) gave a melting point of 134 °C.

`CN1CCc2c(C3=CC(=O)CCC3)c(F)cc3c(=O)c(C(=O)O)cn1c23` registered a melting point of over 300 °C.

In turn, `CNN(NC)C(=O)Nc1cccc2c1C(=O)c1c-2n[nH]c1-c1cccs1` gave a melting point of 279 °C.

`Clc1sc(Cl)c2c1CNC2` had a melting point of over 270 °C.

For the molecule `CC1=NN(CCN2CCOCC2)S(=O)(=O)c2sc(S(N)(=O)=O)cc21`, the melting point was 160 to 162 °C.

Take `CCCNc1nc(N)nc2c1ncn2C1C=CC(CO)C1` (stereo not given): the melting point was 138 to 140 °C.

`COC(=O)c1ccc(-c2nc(-c3ccc(Cl)s3)co2)cc1`: the melting point fell in the range of 189 to 190 °C.

The molecule `CCCCCc1ccc(-c2ccc(C(C)OC(=O)CCC)cc2)cc1` (single isomer, unassigned; (+)) returned a melting point of 38.1 °C.

As for `CCOC(=O)C1=C(C)N=C(N)C(C)(C(=O)OCC)C1c1ccccc1` (stereo not given), the melting point turned out to be 139 °C.

Take `Nc1ccc(CCCn2cnnc2)cc1`: the melting point fell in the range of 150 to 153 °C.

In turn, `Cc1ccc(S(=O)(=O)Nc2ccc(C#N)cc2)cc1` had a melting point of 182 to 184 °C.

Regarding `CN(CCSc1ccc(C=C2SC(=O)NC2=O)cc1)c1nc2ccccc2o1`, the melting point worked out at 189 °C.

In the case of `COc1ccc(/C=C(\C#N)c2ccccc2[N+](=O)[O-])cc1OC1CCCC1`, the melting point lay in the range of 95.5 to 97 °C.

On to `CCCCCNc1nc(SC)[nH]c2nccc1-2`, for which the melting point lay within 134 to 137 °C.

The molecule `COc1ccc(N2CCN(c3c(C)c(C)c4c(c3C)C(CO)C(C)(C)O4)CC2)cc1` (stereo not given) showed a melting point of 140 to 141 °C.

`Cc1ccc(C#N)c(Sc2ccc(F)cc2)c1` registered a melting point of 93 to 96 °C.

The molecule `O=S(=O)(Oc1ccc2ncc3c(c2c1)CCCC3)C(F)(F)F` had a melting point of 80 to 81 °C.

With `CCOc1cc(N)ccc1C(O)c1cc(C)ccn1` (stereo not given), the melting point was in the range of 102 to 105 °C.

The molecule `O=C1CCCNC12CCCCC2` came in with a melting point of 55 °C.

With `CSc1nc(-c2ccncc2)nc(=O)n1C`, the melting point fell in the range of 216 to 218 °C.

The molecule `O=[N+]([O-])c1ccc(Oc2cncc(Cl)n2)cc1` had a melting point of 125 to 127 °C.

The molecule `COC(=O)c1ccc(CCCCO)cc1` gave a melting point of 95.5 to 96 °C.

In the case of `CCCS(=O)(=O)C(c1cnc(C(N)=O)cc1C)c1c(F)ccc(F)c1F` (stereo not given), the melting point fell in the range of 202 to 204 °C.

Turning to `O=C1OCN(C(=O)OCc2ccccc2)[C@H]1Cc1ccccc1`, the melting point was in the range of 85.5 to 86.5 °C.

Regarding `CC(=O)Nc1cccc(C#CCCn2nc3ccccc3n2)n1`, the melting point was 93 to 94 °C.

Turning to `COc1ccccc1-n1c(=O)[nH]c2c(C(N)=O)nc(-c3cccc(N)c3)nc21`, the melting point is 284 to 285 °C.

Regarding `O=C1C(c2c[nH]c3ccccc23)=C(c2c[nH]c3ccccc23)C(=O)N1Cc1ccccc1`, the melting point is over 290 °C.

In turn, `CCC(=O)NCC1CC1c1cccc2nn(CC)cc12` (stereo not given) showed a melting point of 114 to 115 °C.

Consider `CCCOC(=O)c1cncn1C(C)c1ccccc1` (stereo not given), for which the melting point lay in the range of 156 to 157 °C.

As for `CC(=O)NC[C@H]1CN(c2ccc(N3CCC(C#N)(NNC(=O)c4cccs4)CC3)c(F)c2)C(=O)O1`, the melting point fell in the range of 226 to 230 °C.

`CC(=O)c1ccc(=O)[nH]c1C=CN(C)C` gave a melting point of 238 to 240 °C.

`CS(=O)(=O)c1ccc(C[C@@H](NC(=O)OCc2ccccc2)[C@H](O)C(=O)O)cc1`: the melting point was 168 to 172 °C.

`CS(=O)(=O)c1ccc(-c2cnn(-c3cccc(F)c3)c(=O)c2-c2ccc(F)cc2)cc1` registered a melting point of 245 to 247 °C.

In turn, `COCS(=O)(=O)c1ccc(C=C(C)c2ccc3c(c2)C(C)(C)CCC3(C)C)cc1` had a melting point of 154 to 156 °C.

On to `O=C(O)CCc1cn(Cc2ccc(OCc3ccc(-c4ccccc4)nc3)cc2)cc1-c1ccccc1`, for which the melting point lay within 185 to 186 °C.

Molecule `COc1ccc(-c2cccc(C(=O)NN)c2)cc1OC1CCCC1` registered a melting point of 167 to 168 °C.

Molecule `CC(C)OC(=O)c1ncn2c1CN(C)C(=O)c1cc(F)ccc1-2` displayed a melting point of 243 to 244 °C.

`CN1CC=C(c2ccnc(C(=O)N(O)Cc3ccccc3)c2)CC1` yielded a melting point of 135 to 155 °C.

Regarding `COc1ccccc1-c1cc2c(Nc3cccc(Cl)c3)ncnc2[nH]1`, the melting point amounted to 221 °C.

Molecule `CCOC(=O)C1=C(C)NC(C)=C(C(=O)OCC)C1c1cccc(Cl)c1` returned a melting point of 142 to 144 °C.

As to `Cc1sc2nc3ccc(C(N)=O)cn3c(=O)c2c1C`, the melting point was 361 to 363 °C.

Regarding `CC(C)(C)OC(=O)c1ccc(C(=O)NS(=O)(=O)c2ccc(Cl)cc2)cc1`, the melting point was over 300 °C.

The molecule `O=C(Nc1ccc2[nH]c(=O)oc2c1)C(=O)N1CCC(Cc2ccc(F)cc2)CC1` showed a melting point of 224 to 227 °C.

`Cc1ccc(Br)c2occc12` had a melting point of 32 to 33 °C.

`COC(=O)c1ccc(-c2nc(-c3ccccc3)n(C)n2)cc1` gave a melting point of 167 to 168 °C.

`Fc1ccc(Cn2c(NC3CCN(CCc4cn5ccsc5n4)CC3)nc3ccccc32)cc1` had a melting point of 223 °C.

With `CCOC(=O)CN1C(=O)C(NC(=O)Nc2ccc(Cl)cc2)N=C(c2ccccc2F)c2ccccc21` (stereo not given), the melting point lay in the range of 253 to 254 °C.

`COc1cccc(OC)c1C(=O)C=Cc1ccccc1` displayed a melting point of 123 to 124 °C.

For the molecule `N#CCn1nnc2cc3c(cc2c1=O)OC1CCCN1C3=O` (stereo not given), the melting point was in the range of 210 to 212 °C.

In turn, `CC(=O)OCc1ccccc1/C(=N\O)C(N)=O` gave a melting point of 112 to 114 °C.

In turn, `COc1ccc(N2CCN(C3CCN(CC(O)COc4cccc5[nH]c(C)cc45)CC3)C2=O)cc1` (stereo not given) yielded a melting point of 155 to 157 °C.

The molecule `N#Cc1c(N2CCCCC2)cc(-c2ccc3ccc4cccc5ccc2c3c45)c2c1-c1ccccc1C2=O` gave a melting point of 220 to 222 °C.

Regarding `CC(=O)N1CC(Oc2c(C)cccc2C)C1`, the melting point was in the range of 40 to 42.5 °C.

The molecule `O=C(NC1CN(C(C(=O)O)c2ccc(OC(=O)c3ccccc3)cc2)C1=O)C(=NOC(=O)c1ccccc1)c1ccccc1` (stereo not given) had a melting point of 119 to 123 °C.

The molecule `COc1ccc(N2CC(CCN3CCC(O)(c4ccc5c(c4)OCO5)CC3)OC2=O)cc1` (stereo not given) had a melting point of 128 to 130 °C.

`O=C(NCc1ccc(Cl)cc1)c1cnc2c(Cl)c(Cl)ccc2c1O`: the melting point was 295 to 297 °C.

With `CN(C)C1(c2ccccc2)CCC(C(=O)c2cc3ccccc3n2C)(N2CCCC2)CC1` (stereo not given), the melting point lay within 212 to 218 °C.

With `O=C1NC(=O)C(CCCc2ccc3oc(Cc4ccc5ccccc5c4)nc3c2)O1` (stereo not given), the melting point was in the range of 151 to 152 °C.

`NS(=O)(=O)c1ccc(NN=Cc2ccc(Br)cc2)cc1` came in with a melting point of 190 to 192 °C.

The molecule `C=C(C)C(=O)OCCCCCCOc1ccc(/C=C/C(=O)OC)cc1` yielded a melting point of 45 to 50 °C.

`N#CC(=C1C=CC(=NO[Si](c2ccccc2)(c2ccccc2)c2ccccc2)C=C1)c1ccccc1` showed a melting point of 161 to 165 °C.

As for `COCc1ccc(OC)c(Br)c1O`, the melting point was 98 to 100 °C.

`CC1Cc2cc(O)ccc2C2C(F)CC3(C)CC(O)CC3C12` (stereo not given): the melting point was in the range of 239 to 240 °C.

Molecule `CN(C)C(=O)Nc1ccc2c(c1)C(c1ccccc1F)=NCC(=O)N2C` showed a melting point of 97 °C.

For `CCOC(=O)c1cc2ccc(C)cc2o1`, the melting point fell in the range of 35 to 42 °C.

On to `C=CCOC(=O)c1ccc(NC(=O)c2ccc(OC)c(C34CC5CC(CC(C5)C3)C4)c2)cc1`, for which the melting point was in the range of 191 to 192 °C.

The molecule `COC(=O)C=Cc1cccc2cc[nH]c12` gave a melting point of 85 to 86 °C.

With `CC(=O)NCc1ccc(CN2CCN(c3ccccc3)CC2)cc1`, the melting point lay within 135 to 136 °C.

`CCOC(=O)c1cn(Cc2ccc(F)cc2)c2ccc(C(C)=O)cc2c1=O` showed a melting point of 207 to 209 °C.

In the case of `CC1Cc2cc3c(cc2C(c2ccc(Cl)cc2)=NN1c1nccs1)OCO3` (stereo not given), the melting point was in the range of 116 to 117 °C.

(Values after a melting point compilation (Tetko et al.; mined from patent text by program, amines drawn as free bases though some values may be those of a salt).)
